For 5 compounds, EC50 results are on record in ChEMBL document CHEMBL1146458, “Five new maleic and succinic acid derivatives from the mycelium of Antrodia camphorata and their cytotoxic effects on LLC tumor cell line” (2004).

Converted amounts (≈) assume the structure as drawn. Where only a bound is given, the exact number is not on record here.

The experiment can be described thus: Cytotoxicity against mouse LLC cells after 48 hrs by SRB assay. The experiment is classed as functional. Particulars: Lewis lung carcinoma, read-out: ED50 (the source's name). In general terms: In SRB staining, fixed cells bind dye roughly in proportion to their protein.

On to `CC(C)=CCOc1ccc([C@H]2C(=O)N(O)C(=O)[C@@H]2CC(C)C)cc1` (relative stereo), for which the EC50 was over 10 µg/mL.

`CC(C)=CCOc1ccc(C2=C(CC(C)C)C(=O)OC2=O)cc1`: the EC50 was over 20 µg/mL. Consider `CC(C)=CCOc1ccc(C2=C(CC(C)C)C(=O)NC2=O)cc1`, for which the EC50 was 3.6 µg/mL (≈ 11.5 µM). As to `COc1cccc2c1C(=O)c1c(O)c3c(c(O)c1C2=O)C[C@@](O)(C(=O)CO)C[C@@H]3O[C@H]1C[C@H](N)[C@H](O)[C@H](C)O1` [DOXORUBICIN], the EC50 was determined as 0.14 µg/mL (≈ 0.258 µM). Turning to `CC(C)=CCOc1ccc(C2=C(CC(C)C)C(=O)N(O)C2=O)cc1`, the EC50 came to 7.5 µg/mL (≈ 22.8 µM).
